The values below come from patent US20080027014A1, “Novel SGLT inhibitors” (Tanabe Seiyaku Co., Ltd., priority 2006, published 2008).

Usually pIC50 stands for the negative decadic logarithm of the IC50, by convention in mol/L. A higher pIC50 goes with a small IC50. One may read the melting point as the temperature, or range, at which the solid turns liquid.

Data set [1] deals with T1, human SGLT2 (Homo sapiens, UniProt P31639).
T1 construct: expressed in transfected cells; host or cells: CHOK1 cells (kept under Geneticin selection)
T1 sequence (P31639 1-672): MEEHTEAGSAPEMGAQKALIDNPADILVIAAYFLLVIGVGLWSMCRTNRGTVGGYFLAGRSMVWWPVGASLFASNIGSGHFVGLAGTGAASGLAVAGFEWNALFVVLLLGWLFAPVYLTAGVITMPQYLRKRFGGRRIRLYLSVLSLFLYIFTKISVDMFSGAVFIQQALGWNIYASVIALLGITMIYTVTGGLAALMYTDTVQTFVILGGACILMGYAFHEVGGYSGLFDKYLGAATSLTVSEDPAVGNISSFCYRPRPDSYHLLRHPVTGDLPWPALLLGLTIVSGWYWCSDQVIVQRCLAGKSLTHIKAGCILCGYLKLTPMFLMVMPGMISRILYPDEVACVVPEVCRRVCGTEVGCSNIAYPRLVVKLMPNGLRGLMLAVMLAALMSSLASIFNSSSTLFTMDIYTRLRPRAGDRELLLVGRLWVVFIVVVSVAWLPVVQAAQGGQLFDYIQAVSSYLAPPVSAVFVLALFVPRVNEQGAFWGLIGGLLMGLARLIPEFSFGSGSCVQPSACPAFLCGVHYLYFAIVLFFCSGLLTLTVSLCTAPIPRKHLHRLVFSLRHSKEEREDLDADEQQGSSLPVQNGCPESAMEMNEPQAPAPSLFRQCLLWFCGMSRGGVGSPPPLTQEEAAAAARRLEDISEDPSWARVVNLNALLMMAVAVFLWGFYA
The data set is described as follows: Assay for SGLT2 inhibition (14C-AMG uptake in CHOK1 cells expressing human SGLT2). It counts as cell-based. Particulars: CHOK1 cells expressing human SGLT2, 14C-AMG uptake 0.5 mM, 2 hours at 37° C. The method, then: 1. Assay for SGLT2 Inhibition
Compounds described in the above examples were used for the SGLT2 inhibition assay.
CHOK1 cells expressing human SGLT2 were seeded in 24-well plates at a density of 400,000 cells/well in F-12 nutrient mixture (Ham's F-12) containing 10% fetal bovine serum, 400 μg/ml Geneticin, 50 units/ml sodium penicillin G (Gibco-BRL) and 50 μg/ml streptomycin sulfate. After 2 days of culture at 37° C. in a humidified atmosphere containing 5% CO2, cells were washed once with the assay buffer (137 mM NaCl, 5 mM KCl, 1 mM CaCl2, 1 mM MgCl2, 50 mM Hepes, and 20 mM Tris, pH 7.4) and incubated with 250 μl of the buffer containing test compounds for 10 min at 37° C. Test compounds were dissolved in DMSO. The final concentration of DMSO was 0.5%. The transport reaction was initiated by addition of 50 μl [^14C]-methyl-α-D-glucopyranoside (^14C-AMG) solution (final concentration, 0.5 mM). After incubation for 2 hours at 37° C., the uptake was stopped by aspiration of the incubation mixture, the cells were washed three times with ice-cold PBS. Then, cells were solubilized with 0.3 N NaOH and aliquots were taken for determination of radioactivity by a liquid scintillation counter. Nonspecific AMG uptake was defined as that which occurred in the presence of 100 μM of phlorizin, a specific inhibitor of sodium-dependent glucose cotransporter. Specific uptake was normalized for the protein concentrations measured by the method of Bradford. The 50% inhibitory concentration (IC50) values were calculated from dose-response curves by least square method.

The subject of data set [2] is male Sprague-Dawley (SD) rats. The data set is described as follows: Urinary glucose excretion test in rats. Conditions: 30 mg/kg by oral gavage, urine collected for 24 hours, daily amount of glucose excreted per individual. It counts as in vivo, rat. The method, then: 2. Urinary Glucose Excretion Test in Rats
Compounds described in the above examples were used for the Urinary glucose excretion test in rats.
6-week-old male Sprague-Dawley (SD) rats were housed in individual metabolic cages with free access to food and water from 2 days prior to the experiment. On the morning of the experiment, rats were administered vehicle (0.2% carboxymethyl cellulose solution containing 0.2% Tween80) or test compounds (30 mg/kg) by oral gavage at a volume of 10 ml/kg. Then, urine of the rat was collected for 24 hours, and the urine volume was measured. Subsequently, the glucose concentration in urine was quantified using the enzymatic assay kit and the daily amount of glucose excreted in urine per individual was calculated.

Data set [3] deals with diabetic animal models. Particulars: continuous subcutaneous administration; cited from earlier work.

pIC50: −log10 of the molar value.

In turn, `CCc1ccc(Cc2cn([C@@H]3S[C@H](CO)[C@@H](O)[C@H](O)[C@H]3O)c3ccccc23)cc1` [Example 1, 3-(4-Ethylphenylmethyl)-1-(5-thio-β-D-glucopyranosyl)indole] gave a pIC50 in data set [1] of 6.74. In data set [1], `CCc1ccc(Cc2cn([C@@H]3S[C@H](CO)[C@@H](O)[C@H](O)[C@H]3O)c3cccc(Cl)c23)cc1` [Example 2, 4-Chloro-3-(4-ethylphenylmethyl)-1-(5-thio-β-D-glucopyranosyl)indole] gave a pIC50 of 7.68. In data set [2], the Urinary glucose result is on record as “B (2400 mg>B≧2000 mg)”. As for `OC[C@H]1O[C@@H](c2ccc(Cl)c(Cc3cc4ccccc4s3)c2)[C@H](O)[C@@H](O)[C@H]1F` [Example 5, 3-(Benzo[b]thiophen-2-ylmethyl)-4-chloro-1-(4-fluoro-4-deoxy-β-D-galactopyranosyl)benzene], the melting point was in the range of 153 to 154 °C. The same compound had a pIC50 in data set [1] of 8.28. Also, the Urinary glucose result in data set [2] was “A (A≧2400 mg)”. As for `O[C@@H]1[C@@H](O)[C@H](c2ccc(Cl)c(Cc3ccc(-c4ccccc4)s3)c2)O[C@H](CF)[C@H]1O` [Example 6, 4-Chloro-3-(5-phenyl-2-thienylmethyl)-1-(6-fluoro-6-deoxy-β-D-glucopyranosyl)benzene], in data set [1], the pIC50 is 7.51. Regarding `OC[C@H]1S[C@@H](n2cc(Cc3ccc4occc4c3)c3c(Cl)cccc32)[C@H](O)[C@@H](O)[C@@H]1O` [Example 8], the pIC50 in data set [1] was 7.39.

For `CSc1ccc(Cc2cn([C@@H]3S[C@H](CO)[C@@H](O)[C@H](O)[C@H]3O)c3cccc(Cl)c23)cc1` [Example 10], the pIC50 in data set [1] is 7.66. Same read-out and setting: to `OC[C@H]1S[C@@H](n2cc(Cc3ccc(Cl)cc3)c3c(Cl)cccc32)[C@H](O)[C@@H](O)[C@@H]1O` [Example 13] belongs 6.96; to `OC[C@H]1S[C@@H](n2cc(Cc3ccc(Br)cc3)c3c(Cl)cccc32)[C@H](O)[C@@H](O)[C@@H]1O` [Example 14], 7.01; to `COc1ccc(Cc2cn([C@@H]3S[C@H](CO)[C@@H](O)[C@H](O)[C@H]3O)c3cccc(Cl)c23)cc1` [Example 15], 7.82.

As for `OC[C@H]1S[C@@H](n2cc(Cc3ccc4ccccc4c3)c3c(Cl)cccc32)[C@H](O)[C@@H](O)[C@@H]1O` [Example 16], in data set [1], the pIC50 was 6.89. Same read-out and setting: next, `OC[C@H]1S[C@@H](n2cc(Cc3ccc(I)cc3)c3c(F)cccc32)[C@H](O)[C@@H](O)[C@@H]1O` [Example 17]: 7.20; `OC[C@H]1S[C@@H](n2cc(Cc3ccc4occc4c3)c3c(F)cccc32)[C@H](O)[C@@H](O)[C@@H]1O` [Example 18]: 6.72. On the same count and under the same terms, to `CCOc1ccc(Cc2cn([C@@H]3S[C@H](CO)[C@@H](O)[C@H](O)[C@H]3O)c3cccc(C)c23)cc1` [Example 19] belongs 7.34; to `Cc1cccc2c1c(Cc1ccc(Cl)cc1)cn2[C@@H]1S[C@H](CO)[C@@H](O)[C@H](O)[C@H]1O` [Example 20], 6.74; to `N#Cc1cccc(-c2ccc(Cc3cn([C@@H]4S[C@H](CO)[C@@H](O)[C@H](O)[C@H]4O)c4cccc(Cl)c34)s2)c1` [Example 22], 6.68. For the compound `OC[C@H]1S[C@@H](n2cc(Cc3ccc(Br)s3)c3c(Cl)cccc32)[C@H](O)[C@@H](O)[C@@H]1O` [Example 23], the pIC50 in data set [1] was 6.77. Still for that read-out and setting: next, `CCc1ccc(Cc2cn([C@@H]3S[C@H](CO)[C@@H](O)[C@H](O)[C@H]3O)c3cccc(Cl)c23)s1` [Example 25]: 7.17; `OC[C@H]1S[C@@H](n2cc(Cc3ccc(-c4ccc(F)nc4)s3)c3c(Cl)cccc32)[C@H](O)[C@@H](O)[C@@H]1O` [Example 26]: 6.72; `Cc1cccc2c1c(Cc1ccc(C3CC3)cc1)cn2[C@@H]1S[C@H](CO)[C@@H](O)[C@H](O)[C@H]1O` [Example 28]: 7.72. Still for that read-out and setting: next, `OC[C@H]1S[C@@H](n2cc(Cc3ccc(OC(F)F)cc3)c3c(Cl)cccc32)[C@H](O)[C@@H](O)[C@@H]1O` [Example 30]: 7.27; `OC[C@H]1S[C@@H](n2cc(Cc3ccc(-c4cccs4)cc3)c3c(F)cccc32)[C@H](O)[C@@H](O)[C@@H]1O` [Example 31]: 6.82; `OC[C@H]1S[C@@H](n2cc(Cc3ccc(-c4ccccn4)s3)c3c(Cl)cccc32)[C@H](O)[C@@H](O)[C@@H]1O` [Example 33]: 8.00.

For `OC[C@H]1S[C@@H](n2cc(Cc3ccc(C(F)F)cc3)c3c(Cl)cccc32)[C@H](O)[C@@H](O)[C@@H]1O` [Example 34], the pIC50 in data set [1] was 7.46. With `OC[C@H]1O[C@@H](c2ccc(Cl)c(Cc3cc4ccccc4s3)c2)[C@H](O)[C@@H](O)[C@H]1O` [Example 35], in data set [1], the pIC50 was 7.77. The same measure, in the same setting: next, `CCc1ccc(Cc2cn([C@@H]3O[C@H](CO)[C@@H](F)[C@H](O)[C@H]3O)c3ncccc23)cc1` [Example 36]: 6.92.

Take `O=C(CCc1ccc(O)cc1)c1c(O)cc(O)cc1O[C@@H]1O[C@H](CO)[C@@H](O)[C@H](O)[C@H]1O` [phlorizin]: in data set [3], the blood glucose level entry is on record as “normalized”.
